Results as given in ChEMBL document CHEMBL2429809, “Novel peptide-doxorubucin conjugates for targeting breast cancer cells including the multidrug resistant cells” (J Med Chem, 2013).

How the values were obtained:
MDA-MB-435 [1] = assay: Cellular uptake in human MDA-MB-435 cells at 5 uM after 2 hrs by FACS analysis relative to control; type: ADME, cell-based; details: mda-mb-435, 2 h
MDA-MB-435 [2] = assay: Cytotoxicity against human MDA-MB-435 cells after 48 hrs by MTT assay in presence of verapamil; type: functional, cell-based; details: MDA-MB-435, 48 h
MDA-MB-435 [3] = assay: Cellular uptake in doxorubicin-resistant multidrug-resistant human MDA-MB-435 cells at 5 uM after 2 hrs by FACS analysis relative to doxorubicin; type: ADME, cell-based; details: mda-mb-435, 2 h
MCF-10A [4] = assay: Cytotoxicity against human MCF10A cells after 48 hrs by MTT assay; type: cell-based
MDA-MB-435 [5] = assay: Cytotoxicity against doxorubicin-resistant multidrug-resistant human MDA-MB-435 cells after 48 hrs by MTT assay in presence of verapamil; type: functional, cell-based; details: MDA-MB-435, 48 h
MDA-MB-435 [6] = assay: Ratio of IC50 for doxorubicin-resistant multidrug-resistant human MDA-MB-435 cells to IC50 for doxorubicin-resistant multidrug-resistant human MDA-MB-435 cells in presence of verapamil; type: functional
MDA-MB-435 [7] = assay: Ratio of IC50 for human MDA-MB-435 cells to IC50 for human MDA-MB-435 cells in presence of verapamil; type: functional
HUVEC [8] = assay: Cellular uptake in human HUVEC cells at 5 uM after 2 hrs by FACS analysis; type: ADME, cell-based
MDA-MB-435 [9] = assay: Cytotoxicity against doxorubicin-resistant multidrug-resistant human MDA-MB-435 cells after 48 hrs by MTT assay; type: functional, cell-based; details: MDA-MB-435, 48 h
MCF7 [10] = assay: Cytotoxicity against human MCF7 cells after 48 hrs by MTT assay; type: functional, cell-based; details: MCF7, 48 h
HUVEC [11] = assay: Cytotoxicity against human HUVEC cells after 48 hrs by MTT assay; type: cell-based
MCF7 [12] = assay: Cellular uptake in human MCF7 cells at 5 uM after 2 hrs by FACS analysis relative to control; type: ADME, cell-based; details: mcf7, 2 h
MCF-10A [13] = assay: Cellular uptake in human MCF10A cells at 5 uM after 2 hrs by FACS analysis; type: ADME, cell-based
MCF7 [14] = assay: Cellular uptake in human MCF7 cells at 5 uM after 2 hrs by FACS analysis in presence of NH2-WxEYAAQkFL-CONH2; type: ADME, cell-based; details: mcf7, 2 h
MDA-MB-435 [15] = assay: Cytotoxicity against human MDA-MB-435 cells after 48 hrs by MTT assay; type: functional, cell-based; details: MDA-MB-435, 48 h
MDA-MB-435 [16] = assay: Cytotoxicity against doxorubicin-resistant multidrug-resistant human MDA-MB-435 cells after 48 hrs by MTT assay relative to doxorubicin; type: functional
MDA-MB-435 [17] = assay: Cellular uptake in doxorubicin-resistant multidrug-resistant human MDA-MB-435 cells at 5 uM after 2 hrs by FACS analysis; type: ADME, cell-based; details: mda-mb-435, 2 h
[18] = Half life in human serum at 100 uM after 48 hrs by RP-HPLC analysis; type: ADME, cell-free

Drug uptake (MDA-MB-435 [1])	fold change (FC) (MDA-MB-435 [3])	Drug uptake (HUVEC [8])	Drug uptake (MCF7 [12])	Drug uptake (MCF-10A [13])	Drug uptake (MCF7 [14])	Drug uptake (MDA-MB-435 [17])	half-life at 100 µM [18] [h]	Compound	IC50 (MDA-MB-435 [2]) [µM]	IC50 (MCF-10A [4]) [µM]	IC50 (MDA-MB-435 [5]) [µM]	Ratio IC50 (MDA-MB-435 [6])	Ratio IC50 (MDA-MB-435 [7])	IC50 (MDA-MB-435 [9]) [µM]	IC50 (MCF7 [10]) [µM]	IC50 (HUVEC [11]) [µM]	IC50 (MDA-MB-435 [15]) [µM]	Ratio IC50 (MDA-MB-435 [16])
Active	3	Active	Active	Active	Active			CCCC[C@@H](NC(=O)[C@@H](N)Cc1c[nH]c2ccccc12)C(=O)N[C@@H](CCC(=O)O)C(=O)N[C@@H](C)C(=O)N[C@@H](C)C(=O)N[C@@H](Cc1ccc(O)cc1)C(=O)N[C@@H](CCC(N)=O)C(=O)N[C@H](CCCCNC(=O)CCCC(=O)OCC(=O)[C@]1(O)Cc2c(O)c3c(c(O)c2[C@@H](O[C@H]2C[C@H](N)[C@H](O)[C@H](C)O2)C1)C(=O)c1c(OC)cccc1C3=O)C(=O)N[C@@H](Cc1ccccc1)C(=O)N[C@@H](CC(C)C)C(N)=O	15.5	40.5	14.4	1.3	1.3	19.7	19.1	50.9	18.6	
Active	4.7	Active	Active	Active	Active	Active	2	CCCC[C@@H](NC(=O)[C@@H](N)Cc1c[nH]c2ccccc12)C(=O)N[C@@H](CCC(=O)O)C(=O)N[C@@H](C)C(=O)N[C@@H](C)C(=O)N[C@@H](Cc1ccc(O)cc1)C(=O)N[C@@H](CCC(N)=O)C(=O)N[C@H](CCCCNC(=O)CCCC(=O)N[C@H]1C[C@H](O[C@H]2C[C@](O)(C(=O)CO)Cc3c(O)c4c(c(O)c32)C(=O)c2c(OC)cccc2C4=O)O[C@@H](C)[C@H]1O)C(=O)N[C@@H](Cc1ccccc1)C(=O)N[C@@H](CC(C)C)C(N)=O	0.83	35.1	3.1	1.3	1.3	5.4	0.9	42.3	1.5	>4

Compound	Drug uptake (MDA-MB-435 [1])	fold change (FC) (MDA-MB-435 [3])	Drug uptake (HUVEC [8])	Drug uptake (MCF7 [12])	Drug uptake (MCF-10A [13])	Drug uptake (MCF7 [14])	Drug uptake (MDA-MB-435 [17])	half-life at 100 µM [18] [h]	IC50 (MDA-MB-435 [2]) [µM]	IC50 (MCF-10A [4]) [µM]	IC50 (MDA-MB-435 [5]) [µM]	Ratio IC50 (MDA-MB-435 [6])	Ratio IC50 (MDA-MB-435 [7])	IC50 (MDA-MB-435 [9]) [µM]	IC50 (MCF7 [10]) [µM]	IC50 (HUVEC [11]) [µM]	IC50 (MDA-MB-435 [15]) [µM]	Ratio IC50 (MDA-MB-435 [16])
COc1cccc2c1C(=O)c1c(O)c3c(c(O)c1C2=O)C[C@@](O)(C(=O)CO)C[C@@H]3O[C@H]1C[C@H](N)[C@H](O)[C@H](C)O1 [DOXORUBICIN]			Active			Active			0.15	1.2	1.56			21.9		1.1	0.6	
